Our source for the EC50 values is US20220162191A1, “SMALL MOLECULE MODULATORS OF IL-17” (LEO PHARMA A/S, priority 2019, published 2022).

Structures can show the parent of a compound that is named as a salt. Some results are limits rather than exact numbers.

The target of the experiment is T1, human IL-17AA (Homo sapiens, UniProt Q16552).
T1 construct: host or cells: HEK (human embryonic kidney) cells
T1 sequence (Q16552 24-155) 1: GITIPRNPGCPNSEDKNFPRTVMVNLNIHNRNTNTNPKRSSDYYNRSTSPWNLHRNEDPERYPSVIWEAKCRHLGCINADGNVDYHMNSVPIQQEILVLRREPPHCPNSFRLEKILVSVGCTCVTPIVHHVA
T1 sequence (Q16552 24-155) 2: T1 sequence (Q16552 24-155) 1
The experiment in a line: IL-8 release assay in human epithelial keratinocytes adult (HEKa). Type of experiment: cell-based. The following applies: 3 ng/ml human IL-17AA + 10 ng/ml human TNFalpha, 68-72 h, IL-8 by HTRF, read-out: Rel EC50 L-8 release assay. The procedure, abridged:
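IL-8 secretion, quantified by HTRF (665/620 nm) as percent of controls, served as the readout after 68–72 h culture of HEKa cells with compound plus IL-17AA (3 ng/ml final) and TNF-alpha (10 ng/ml final). Four-parameter logistic curves gave relative IC50 and Emax.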
A general note: Time-resolved FRET reads energy transfer from a long-lived donor to a nearby acceptor.
For orientation: EC50 means the concentration at which the effect is half-maximal. With `Cc1n[nH]c(C)c1-c1ccc(NC(=O)[C@H](Cc2cc(-c3ccnc(N4CCCC5(COC5)C4)n3)ccc2Cl)NC(=O)C2(F)CC2)cc1` [Example 319, N-[(1S)-1-[[2-chloro-5-[2-(2-oxa-8-azaspiro[3.5]nonan-8-yl)pyrimidin-4-yl]phenyl]methyl]-2-[4-(3,5-dimethyl-1H-pyrazol-4-yl)anilino]-2-oxo-ethyl]-1-fluoro-cyclopropanecarboxamide], the EC50 was less than 100 nM.

For `Cc1[nH]ncc1-c1ccc(NC(=O)C(Cc2cc(-c3ccc(=O)n(C(C)C)c3)ccc2Cl)NC(=O)C2(F)CC2)cc1` (stereo not shown) [Example 129, N-[1-[[2-chloro-5-(1-isopropyl-6-oxo-3-pyridyl)phenyl]methyl]-2-[4-(5-methyl-1H-pyrazol-4-yl)anilino]-2-oxo-ethyl]-1-fluoro-cyclopropanecarboxamide], the EC50 fell in the range of 100 to 1000 nM.

For the molecule `CC(C)n1cc(-c2cccc(C(c3ccccc3)C(NC(=O)c3ccnn3C)C(=O)Nc3ccc(-c4cncn4C)cc3)c2)ccc1=O` (single isomer, unassigned; diastereomer 4) [Example 234, N-[1-[[3-(1-isopropyl-6-oxo-3-pyridyl)phenyl]-phenyl-methyl]-2-[4-(3-methylimidazol-4-yl)anilino]-2-oxo-ethyl]-2-methyl-pyrazole-3-carboxamide (Diastereomer 4)], the EC50 fell in the range of 100 to 1000 nM.

`CN1CCOC[C@H]1c1cccc(-c2ccc(Cl)c(C[C@H](NC(=O)c3ccnn3C)C(=O)Nc3ccc(-c4cncn4C)cc3)c2)c1` [Example 218, N-[(1S)-1-[[2-chloro-5-[3-[(3R)-4-methylmorpholin-3-yl]phenyl]phenyl]methyl]-2-[4-(3-methylimidazol-4-yl)anilino]-2-oxo-ethyl]-2-methyl-pyrazole-3-carboxamide]: the EC50 lay in the range of 100 to 1000 nM.

For the molecule `C[C@@H]1CN(c2cc(-c3ccc(Cl)c(C[C@H](NC(=O)c4ccnn4C)C(=O)Nc4ccc(-c5cncn5C)cc4)c3)ccn2)CCN1` [Example 210, N-[(1S)-1-[[2-chloro-5-[2-[(3R)-3-methylpiperazin-1-yl]-4-pyridyl]phenyl]methyl]-2-[4-(3-methylimidazol-4-yl)anilino]-2-oxo-ethyl]-2-methyl-pyrazole-3-carboxamide], the EC50 was 100 to 1000 nM. Take `Cc1cnn(C)c1-c1ccc(NC(=O)[C@H](Cc2cc(-c3ccc(=O)n(C(C)C)c3)ccc2Cl)NC(=O)C2(F)CCC2)cc1` [Example 331, N-[(1S)-1-[[2-chloro-5-(1-isopropyl-6-oxo-3-pyridyl)phenyl]methyl]-2-[4-(2,4-dimethylpyrazol-3-yl)anilino]-2-oxo-ethyl]-1-fluoro-cyclobutanecarboxamide]: the EC50 was less than 100 nM. Take `Cc1n[nH]c(C)c1-c1ccc(NC(=O)[C@@H](NC(=O)c2ccnn2C)[C@@H]2CCc3ccc(-c4cnn(CC(C)(C)O)c4)cc32)cc1` [Example 13, N-[(1S)-2-[4-(3,5-dimethyl-1H-pyrazol-4-yl)anilino]-1-[(1R)-6-[1-(2-hydroxy-2-methyl-propyl)pyrazol-4-yl]indan-1-yl]-2-oxo-ethyl]-2-methyl-pyrazole-3-carboxamide]: the EC50 was less than 100 nM. Regarding `Cc1n[nH]c(C)c1-c1ccc(NC(=O)[C@H](NC(=O)C2(F)CC2)[C@H](C)c2cccc(-c3ccnc(N4C[C@@H]5C[C@H]4CO5)c3)c2)cc1` [Example 340, N-[(1R,2R)-1-[[4-(3,5-dimethyl-1H-pyrazol-4-yl)phenyl]carbamoyl]-2-[3-[2-[(1S,4S)-2-oxa-5-azabicyclo[2.2.1]heptan-5-yl]-4-pyridyl]phenyl]propyl]-1-fluoro-cyclopropanecarboxamide], the EC50 fell in the range of 100 to 1000 nM. For `CC(C)n1cc(-c2ccc(Cl)c(C[C@H](NC(=O)C3CCC3)C(=O)Nc3ccc(-c4nncn4C)cc3)c2)ccc1=O` [Example 293, N-[(1S)-1-[[2-chloro-5-(1-isopropyl-6-oxo-3-pyridyl)phenyl]methyl]-2-[4-(4-methyl-1,2,4-triazol-3-yl)anilino]-2-oxo-ethyl]cyclobutanecarboxamide], the EC50 was more than 1000 nM. For `Cc1n[nH]c(C)c1-c1ccc(NC(=O)[C@@H](NC(=O)C2(F)CC2)[C@@H]2CCc3ccc(-c4cnn(C(C)(C)CO)c4)cc32)cc1` [Example 12, N-[(1S)-2-[4-(3,5-dimethyl-1H-pyrazol-4-yl)anilino]-1-[(1R)-6-[1-(2-hydroxy-1,1-dimethyl-ethyl)pyrazol-4-yl]indan-1-yl]-2-oxo-ethyl]-1-fluoro-cyclopropanecarboxamide], the EC50 is less than 100 nM.

With `Cc1cnn(C)c1-c1ccc(NC(=O)[C@H](Cc2cc(-c3ccc(=O)n(C(C)C)c3)ccc2Cl)NC(=O)C2CC2)cc1` [Example 329, N-[(1S)-1-[[2-chloro-5-(1-isopropyl-6-oxo-3-pyridyl)phenyl]methyl]-2-[4-(2,4-dimethylpyrazol-3-yl)anilino]-2-oxo-ethyl]cyclopropanecarboxamide], the EC50 fell in the range of 100 to 1000 nM. Consider `Cc1ncn(C)c1-c1ccc(NC(=O)[C@H](Cc2cc(-c3cccc(C(C)(C)N)c3)ccc2Cl)NC(=O)c2ccnn2C)cc1` [Example 203, N-[(1S)-1-[[5-[3-(1-amino-1-methyl-ethyl)phenyl]-2-chloro-phenyl]methyl]-2-[4-(3,5-dimethylimidazol-4-yl)anilino]-2-oxo-ethyl]-2-methyl-pyrazole-3-carboxamide], for which the EC50 was in the range of 100 to 1000 nM.

With `Cc1n[nH]c(C)c1-c1ccc(NC(=O)[C@H](Cc2cc(-c3ccnc(N4CCOCC4)c3)ccc2Cl)NC(=O)C2(F)CC2)cc1` [Example 225, N-[(1S)-1-[[2-chloro-5-(2-morpholino-4-pyridyl)phenyl]methyl]-2-[4-(3,5-dimethyl-1H-pyrazol-4-yl)anilino]-2-oxo-ethyl]-1-fluoro-cyclopropanecarboxamide], the EC50 was less than 100 nM. Consider `Cc1cnn(C)c1-c1ccc(NC(=O)[C@H](Cc2cc(-c3ccc(=O)n(C(C)C)c3)ccc2Cl)NC(=O)c2ccno2)cc1` [Example 324, N-[(1S)-1-[[2-chloro-5-(1-isopropyl-6-oxo-3-pyridyl)phenyl]methyl]-2-[4-(2,4-dimethylpyrazol-3-yl)anilino]-2-oxo-ethyl]isoxazole-5-carboxamide], for which the EC50 was 100 to 1000 nM.

Turning to `Cn1cncc1-c1ccc(NC(=O)[C@H](Cc2cc(-c3cccc(C4CNCCO4)c3)ccc2Cl)NC(=O)c2ccnn2C)cc1` (stereo partly drawn) [Example 219, N-[(1S)-1-[[2-chloro-5-(3-morpholin-2-ylphenyl)phenyl]methyl]-2-[4-(3-methylimidazol-4-yl)anilino]-2-oxo-ethyl]-2-methyl-pyrazole-3-carboxamide hydrochloride], the EC50 fell in the range of 100 to 1000 nM. For `Cc1n[nH]c(C)c1-c1ccc(NC(=O)[C@@H](NC(=O)c2ccnn2C)[C@@H]2CCCc3ccc(-c4ccc(=O)n(C(C)C)c4)cc32)cc1O` [Example 33, N-[(1S)-2-[4-(3,5-dimethyl-1H-pyrazol-4-yl)-3-hydroxy-anilino]-1-[(1R)-7-(1-isopropyl-6-oxo-3-pyridyl)tetralin-1-yl]-2-oxo-ethyl]-2-methyl-pyrazole-3-carboxamide], the EC50 was less than 100 nM. `CC(C)COC(=O)N[C@@H](Cc1cc(-c2ccc(=O)n(C(C)C)c2)ccc1Cl)C(=O)Nc1ccc(-c2nncn2C)cc1` [Example 100, isobutyl N-[(1S)-1-[[2-chloro-5-(1-isopropyl-6-oxo-3-pyridyl)phenyl]methyl]-2-[4-(4-methyl-1,2,4-triazol-3-yl)anilino]-2-oxo-ethyl]carbamate]: the EC50 fell in the range of 100 to 1000 nM. Turning to `Cc1ncnn1-c1ccc(NC(=O)C(Cc2cc(-c3ccc(=O)n(C(C)C)c3)ccc2Cl)NC(=O)c2ccnn2C)cc1` (stereo not shown) [Example 88, N-[1-[[2-chloro-5-(1-isopropyl-6-oxo-3-pyridyl)phenyl]methyl]-2-[4-(5-methyl-1,2,4-triazol-1-yl)anilino]-2-oxo-ethyl]-2-methyl-pyrazole-3-carboxamide], the EC50 was more than 1000 nM.

As for `Cn1cncc1-c1ccc(NC(=O)C(Cc2cc(-c3ccnc(N4CCOCC4)c3)ccc2Cl)NC(=O)c2ccnn2C)cc1` (stereo not shown) [Example 165, N-[1-[[2-chloro-5-(2-morpholino-4-pyridyl)phenyl]methyl]-2-[4-(3-methylimidazol-4-yl)anilino]-2-oxo-ethyl]-2-methyl-pyrazole-3-carboxamide], the EC50 was 100 to 1000 nM. Take `COCCOCCn1cc(-c2ccc(-c3ccc(Cl)c(CC(NC(=O)c4ccnn4C)C(=O)Nc4ccc(-c5c(C)n[nH]c5C)cc4)c3)cc2)nn1` (stereo not shown) [Example 313, N-[1-[[2-chloro-5-[4-[1-[2-(2-methoxyethoxy)ethyl]triazol-4-yl]phenyl]phenyl]methyl]-2-[4-(3,5-dimethyl-1H-pyrazol-4-yl)anilino]-2-oxo-ethyl]-2-methyl-pyrazole-3-carboxamide]: the EC50 was less than 100 nM. The value for `Cc1nccn1-c1ccc(NC(=O)[C@@H](NC(=O)c2ccnn2C)[C@@H]2CCCc3ccc(-c4ccnc(N5C[C@H]6C[C@@H]5CO6)c4)cc32)cc1` [Example 403, 2-methyl-N-[(1S)-2-[4-(2-methylimidazol-1-yl)anilino]-1-[(1R)-7-[2-[(1R,4R)-2-oxa-5-azabicyclo[2.2.1]heptan-5-yl]-4-pyridyl]tetralin-1-yl]-2-oxo-ethyl]pyrazole-3-carboxamide] was 100 to 1000 nM; that for `Cc1n[nH]c(C)c1-c1ccc(NC(=O)[C@@H](NC(=O)C2(F)CC2)[C@@H]2CCc3ccc(-c4cc(N5C[C@@H]6C[C@H]5CO6)ccn4)cc32)cc1` [Example 368, N-[(1S)-2-[4-(3,5-dimethyl-1H-pyrazol-4-yl)anilino]-1-[(1R)-6-[4-[(1S,4S)-2-oxa-5-azabicyclo[2.2.1]heptan-5-yl]-2-pyridyl]indan-1-yl]-2-oxo-ethyl]-1-fluoro-cyclopropanecarboxamide] was 100 to 1000 nM.
